Source: PMC8146637, “Enhanced Bioavailability and Efficacy of Silymarin Solid Dispersion in Rats with Acetaminophen-Induced Hepatotoxicity” (Pharmaceutics, 2021)

Assays:
[1] = Intestinal permeability of silybin, Ussing chamber; details: male, Wistar, rat, pH 7.4
Method: Male Wistar rats weighing 225–270 g (eight weeks old, n = 28) were purchased from Samtako Co. (Osan, Korea). Rats were housed in a 12-h light/dark cycle, and food and water were supplied ad libitum for one week prior to animal studies. […] Rats were fasted for 16 h, but had free access to water before study commencement. […] A proximal jejunum section (approximately 10 cm) was excised and washed in prewarmed HBSS (pH 7.4). Segments were mounted on a tissue holder of a Navicyte Easy Mount Ussing Chamber (Warner Instruments, Holliston, MA, USA), with a surface area of 0.76 cm², and acclimated in HBSS for 15 min with continuous oxygenation (95% O₂/5% CO₂ gas). […]
To investigate whether efflux transporters were involved in this process, an apical to basal (A to B) and a basal to apical (B to A) transport of 20 μM silybin in the presence of representative inhibitors of P-gp, MRPs, and BCRPs such as 20 μM cyclosporine A (CsA), 100 μM MK-571, and 20 μM fumitremorgin C (FTC), respectively, were measured in a proximal jejunum section from control rats (n = 4) [45, 46]. The effects of TPGS (0.01–1 mg/mL) on silybin permeability were also measured in a proximal jejunum section from control rats (n = 4) using the above method. […]

rat jejunal segments = assay: Lucifer yellow permeability (intestinal integrity), Ussing chamber; type: in vitro ADME
Method: Segments were mounted on a tissue holder of a […] […] Lucifer yellow fluorescence in 200 μL sample aliquots was measured using a fluorescence spectrophotometer (Infinite 200 PRO, Tecan, Switzerland) at an excitation wavelength of 425 nm and emission wavelength of 535 nm.

[2] = Effect of various excipients on silymarin solubility; type: physicochemical
Method: The effect of various excipients on the silymarin solubility was measured. […] Mixtures were centrifuged at 16,000× g for 10 min and supernatants filtered through a membrane filter (pore size; 0.22 μm). Filtrates were diluted in 85% acetonitrile and silybin concentrations analyzed using a liquid chromatography-tandem mass spectrometry (LC-MS/MS) system.

[3] = in vivo; cited from earlier work
[4] = Liver distribution of silybin after repeated oral administration in APAP-induced hepatotoxic rats; details: rat, in vivo
Method: To investigate the liver distribution of silymarin and silymarin-SD, blood samples were collected from the abdominal artery at 0.5, 1, 2, 4, and 24 h after the repeated oral administration of silymarin (20 mg/kg as silybin, n = 20) or silymarin-SD (20 mg/kg as silybin, n = 20), according to the dosing schedule. Immediately after blood sampling, the liver was excised, rinsed in saline, and homogenized in nine volumes of saline, using a tissue homogenizer. Aliquots (50 μL) of 10% liver homogenate samples were stored at −80 °C for silybin assay.
Silybin concentrations in plasma and 10% liver homogenate samples were analyzed. Samples (100 μL) were added to 300 μL IS (naringenin, 20 ng/mL in acetonitrile) and the mixture was vigorously mixed for 10 min, followed by centrifugation at 16,000× g for 5 min. Supernatant aliquots (5 μL) were directly injected into an LC-MS/MS system.

Row | Molecule | increase in silymarin solubility in the presence of excipient [2] | other results
1 | COc1cc(C2Oc3cc([C@H]4Oc5cc(O)cc(O)c5C(=O)[C@@H]4O)ccc3OC2CO)ccc1O (stereo partly shown) [silybin, Silybin] | – | efflux ratio at 2 h, 20 μM [1]: 5.8
2 | Lucifer yellow [reference compound] | – | Papp,AB of Lucifer yellow (rat jejunal segments; intestinal segment of APAP-induced hepatotoxic rats): 0.28 ×10⁻⁶ cm/s
3 | Poloxamer 407 | 2~3 fold | –
4 | Silymarin | – | Papp,AB of Lucifer yellow in the presence of silymarin or silymarin-SD (rat jejunal segments): not different; bioavailability [3]: 23–47%; time course of liver silybin concentration [4]: decreased sharply for 4 h
5 | Tween 80 | 2~3 fold | –
6 | hydroxypropyl cellulose [HPC] | less than 1.5 fold | –
7 | pluronic F127 | 2~3 fold | –
8 | polyvinylpyrrolidone [PVP] | highest increase | –
